This note sets out measurements from ChEMBL document CHEMBL1201862, “PubChem BioAssay data set” (2004).

The nature of experiment [1]: cells. It counts as functional.
For experiment [2], the target named is T1, Hexokinase-1 (Homo sapiens, UniProt P19367).
T1 sequence (P19367 whole entry): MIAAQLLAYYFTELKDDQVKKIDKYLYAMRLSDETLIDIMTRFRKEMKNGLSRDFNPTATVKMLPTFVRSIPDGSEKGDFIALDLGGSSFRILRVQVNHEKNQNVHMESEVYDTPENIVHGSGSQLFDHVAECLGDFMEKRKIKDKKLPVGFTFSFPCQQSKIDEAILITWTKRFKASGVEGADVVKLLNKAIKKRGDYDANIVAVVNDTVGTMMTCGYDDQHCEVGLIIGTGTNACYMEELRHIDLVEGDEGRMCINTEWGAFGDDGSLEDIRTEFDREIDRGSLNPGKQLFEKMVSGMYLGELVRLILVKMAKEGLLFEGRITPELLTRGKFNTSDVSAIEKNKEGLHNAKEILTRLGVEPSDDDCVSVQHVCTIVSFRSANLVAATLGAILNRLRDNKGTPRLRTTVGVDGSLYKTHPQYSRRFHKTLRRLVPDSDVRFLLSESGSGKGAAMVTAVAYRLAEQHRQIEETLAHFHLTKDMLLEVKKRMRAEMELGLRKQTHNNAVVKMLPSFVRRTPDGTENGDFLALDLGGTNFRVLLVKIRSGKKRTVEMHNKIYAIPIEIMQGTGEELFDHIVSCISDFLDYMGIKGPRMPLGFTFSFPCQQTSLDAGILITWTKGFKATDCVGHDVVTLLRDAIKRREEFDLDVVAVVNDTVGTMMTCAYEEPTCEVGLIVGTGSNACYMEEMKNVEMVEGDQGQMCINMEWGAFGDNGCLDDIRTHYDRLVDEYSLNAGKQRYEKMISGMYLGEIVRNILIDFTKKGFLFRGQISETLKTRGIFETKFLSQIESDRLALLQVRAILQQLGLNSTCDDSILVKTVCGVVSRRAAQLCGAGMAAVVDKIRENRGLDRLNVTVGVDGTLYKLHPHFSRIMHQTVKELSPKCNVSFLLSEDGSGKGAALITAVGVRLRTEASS
Nature of the experiment: HK1 enzyme activation by HKDC1 hits – biochemical, selectivity assay for HKDC1 activator project, dose response (AID 504762). It counts as functional.

A short description of experiment [3]: viability of HCT116 lacking mutant beta-catenin – cell-based, human colon tumor, dose response (AID 1045).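 Also: HCT116 colon tumor cells with beta catenin knocked out; cells exposed to compound for 60 hours.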 It counts as functional.
Experiment [4] has as its target T2, 1-phosphatidylinositol 4,5-bisphosphate phosphodiesterase beta-3 (Homo sapiens, UniProt Q01970).
T2 sequence (Q01970 whole entry): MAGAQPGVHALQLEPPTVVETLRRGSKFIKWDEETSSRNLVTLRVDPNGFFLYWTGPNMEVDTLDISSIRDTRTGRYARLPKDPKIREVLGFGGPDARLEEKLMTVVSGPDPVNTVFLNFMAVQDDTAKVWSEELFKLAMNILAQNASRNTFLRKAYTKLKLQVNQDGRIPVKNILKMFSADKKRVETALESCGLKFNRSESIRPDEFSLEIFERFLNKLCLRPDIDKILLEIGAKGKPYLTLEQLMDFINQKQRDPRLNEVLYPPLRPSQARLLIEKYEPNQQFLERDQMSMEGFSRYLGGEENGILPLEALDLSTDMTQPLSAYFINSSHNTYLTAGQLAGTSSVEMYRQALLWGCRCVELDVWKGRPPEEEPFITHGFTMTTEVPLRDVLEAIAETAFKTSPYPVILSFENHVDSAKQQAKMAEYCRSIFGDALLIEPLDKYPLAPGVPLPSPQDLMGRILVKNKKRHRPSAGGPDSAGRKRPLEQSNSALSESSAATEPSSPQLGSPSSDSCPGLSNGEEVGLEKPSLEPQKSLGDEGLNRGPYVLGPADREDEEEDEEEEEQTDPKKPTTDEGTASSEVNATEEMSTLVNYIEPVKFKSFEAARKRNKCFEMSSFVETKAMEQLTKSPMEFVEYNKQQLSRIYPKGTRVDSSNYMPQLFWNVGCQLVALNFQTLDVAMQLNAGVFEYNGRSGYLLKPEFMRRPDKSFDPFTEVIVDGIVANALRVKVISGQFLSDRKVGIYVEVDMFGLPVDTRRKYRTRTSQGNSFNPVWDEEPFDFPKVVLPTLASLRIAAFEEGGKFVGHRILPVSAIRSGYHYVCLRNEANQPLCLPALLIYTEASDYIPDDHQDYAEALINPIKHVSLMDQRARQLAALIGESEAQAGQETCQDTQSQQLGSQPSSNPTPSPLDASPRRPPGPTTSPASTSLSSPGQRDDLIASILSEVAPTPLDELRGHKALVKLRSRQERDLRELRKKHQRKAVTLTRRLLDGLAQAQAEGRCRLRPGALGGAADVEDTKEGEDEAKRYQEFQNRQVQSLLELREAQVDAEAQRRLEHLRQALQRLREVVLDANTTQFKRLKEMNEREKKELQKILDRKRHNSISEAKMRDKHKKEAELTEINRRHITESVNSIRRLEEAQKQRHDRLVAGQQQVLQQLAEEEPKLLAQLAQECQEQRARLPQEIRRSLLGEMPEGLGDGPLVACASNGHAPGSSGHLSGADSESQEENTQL
The experiment in a line: Fluorescence-based biochemical high throughput dose response assay to identify inhibitors of phospholipase C isozymes (PLC-B3).

Experiment [5] addresses Tyrosine-protein kinase SYK (Homo sapiens, UniProt P43405). It counts as functional.
Experiment [6] concerns the target Serine/threonine-protein kinase TBK1 (Homo sapiens, UniProt Q9UHD2). Nature of the experiment: Navigating the Kinome. Panel member name: TBK1. It counts as functional.
Experiment [7] has as its target Ribosomal protein S6 kinase alpha-5 (Homo sapiens, UniProt O75582). It counts as functional.
The target of experiment [8] is LIM domain kinase 1 (Homo sapiens, UniProt P53667). Nature of the experiment: Navigating the Kinome. Panel member name: LIMK1. The experiment is classed as functional.
LIM domain kinase 1, sequence (P53667 whole entry, the tested form may be a part): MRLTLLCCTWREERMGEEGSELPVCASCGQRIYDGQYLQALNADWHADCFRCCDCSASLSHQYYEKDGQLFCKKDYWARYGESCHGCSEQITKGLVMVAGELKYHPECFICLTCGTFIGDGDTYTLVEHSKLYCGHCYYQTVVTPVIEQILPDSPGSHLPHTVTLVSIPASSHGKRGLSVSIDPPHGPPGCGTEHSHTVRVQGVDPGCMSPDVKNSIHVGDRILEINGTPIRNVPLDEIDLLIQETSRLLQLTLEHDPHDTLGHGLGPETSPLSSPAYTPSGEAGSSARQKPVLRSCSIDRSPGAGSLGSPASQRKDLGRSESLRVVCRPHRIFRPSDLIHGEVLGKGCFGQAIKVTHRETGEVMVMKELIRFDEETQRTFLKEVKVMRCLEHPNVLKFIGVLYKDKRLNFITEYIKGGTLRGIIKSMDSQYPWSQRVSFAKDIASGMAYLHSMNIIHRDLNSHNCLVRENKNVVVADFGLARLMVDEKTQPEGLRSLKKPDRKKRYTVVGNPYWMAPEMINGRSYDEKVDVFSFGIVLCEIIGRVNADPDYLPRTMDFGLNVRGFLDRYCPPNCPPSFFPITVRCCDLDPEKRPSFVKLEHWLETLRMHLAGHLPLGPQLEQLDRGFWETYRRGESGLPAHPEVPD

Active and inactive are the calls of the source.

Ribosomal protein S6 kinase alpha-5, sequence (O75582 whole entry, the tested form may be a part): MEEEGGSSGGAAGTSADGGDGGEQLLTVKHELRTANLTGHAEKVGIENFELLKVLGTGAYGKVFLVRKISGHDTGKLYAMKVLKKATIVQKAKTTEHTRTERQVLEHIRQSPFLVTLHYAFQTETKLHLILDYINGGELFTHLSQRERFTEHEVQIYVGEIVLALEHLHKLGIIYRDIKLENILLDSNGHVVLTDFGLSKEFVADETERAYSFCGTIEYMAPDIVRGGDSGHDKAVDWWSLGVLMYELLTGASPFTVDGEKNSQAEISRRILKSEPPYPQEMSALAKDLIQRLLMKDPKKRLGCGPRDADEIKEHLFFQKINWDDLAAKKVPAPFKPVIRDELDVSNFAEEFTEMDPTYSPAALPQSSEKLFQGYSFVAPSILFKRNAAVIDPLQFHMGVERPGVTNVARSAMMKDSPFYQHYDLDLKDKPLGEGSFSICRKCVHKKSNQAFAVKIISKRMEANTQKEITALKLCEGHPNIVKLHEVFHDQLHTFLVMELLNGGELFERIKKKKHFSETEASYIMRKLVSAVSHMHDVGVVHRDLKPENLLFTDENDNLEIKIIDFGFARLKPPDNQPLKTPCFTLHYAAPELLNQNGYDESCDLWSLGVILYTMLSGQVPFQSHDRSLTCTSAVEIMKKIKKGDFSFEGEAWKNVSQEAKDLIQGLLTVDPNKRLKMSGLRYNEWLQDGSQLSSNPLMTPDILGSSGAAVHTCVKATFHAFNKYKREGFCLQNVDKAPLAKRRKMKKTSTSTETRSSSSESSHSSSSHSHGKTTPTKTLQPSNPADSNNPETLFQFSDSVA
Serine/threonine-protein kinase TBK1, sequence (Q9UHD2 whole entry): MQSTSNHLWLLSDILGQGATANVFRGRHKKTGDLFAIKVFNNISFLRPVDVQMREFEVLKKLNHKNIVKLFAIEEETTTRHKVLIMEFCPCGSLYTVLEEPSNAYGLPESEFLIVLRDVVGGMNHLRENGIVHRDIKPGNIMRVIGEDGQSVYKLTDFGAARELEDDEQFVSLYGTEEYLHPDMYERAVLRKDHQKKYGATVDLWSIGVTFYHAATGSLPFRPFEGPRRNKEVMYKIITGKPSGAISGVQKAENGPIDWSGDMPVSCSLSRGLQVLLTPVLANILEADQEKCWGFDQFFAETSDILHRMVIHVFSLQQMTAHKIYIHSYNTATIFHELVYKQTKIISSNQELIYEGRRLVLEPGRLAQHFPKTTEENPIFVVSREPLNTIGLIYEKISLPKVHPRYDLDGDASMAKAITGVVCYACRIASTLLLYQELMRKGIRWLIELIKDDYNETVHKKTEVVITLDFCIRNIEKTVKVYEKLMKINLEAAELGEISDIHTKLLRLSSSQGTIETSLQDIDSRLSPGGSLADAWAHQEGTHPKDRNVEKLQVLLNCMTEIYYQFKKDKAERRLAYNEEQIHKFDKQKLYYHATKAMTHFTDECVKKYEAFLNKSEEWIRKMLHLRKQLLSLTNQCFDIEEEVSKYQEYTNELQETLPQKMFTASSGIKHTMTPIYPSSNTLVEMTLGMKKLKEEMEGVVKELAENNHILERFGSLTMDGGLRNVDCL

Take `COC(=O)CCS(=O)(=O)c1nc(-c2ccccc2)cc(C(F)(F)F)n1`: the IC50 in experiment [1] is 4.78 µM (active).

Turning to `O=C(O)c1ccc(NC2=C(Cl)C(=O)c3ccccc3C2=O)cc1`, in experiment [2], the 50% effective concentration (EC50) is 10.6 µM (active).

`O=C(O)c1ccc2c3c(ncnc13)-c1ccccc1C2=O`: the EC50 in experiment [3] was 13.4 µM (active).

On to `CCOC(=O)c1c2c(n(Cc3ccccc3)c1C)C(=O)C(=O)c1ccccc1-2`, for which the IC50 in experiment [4] is > 123 µM (inactive).

In the case of `Cc1ccc2nccc(NC(=O)Nc3cccc(C(F)(F)F)n3)c2c1`, the Ki in experiment [5] is > 1.58 µM (inactive).

Regarding `COc1cc2c(cc1F)C(c1ccccc1Cl)=Nc1c(n[nH]c1C)N2` [RG-1530], the Ki in experiment [6] is > 2.51 µM (inactive); in experiment [7], > 2 µM (inactive); in experiment [8], 0.501 µM (active).

As usually defined, the IC50 is the concentration needed to halve the response being measured. As usually defined, the EC50 is the concentration needed to bring the measured effect to its halfway point. As a reminder, the Ki is a measure of affinity in units of concentration, obtained from inhibition or displacement.
